ChEMBL document CHEMBL1201862, “PubChem BioAssay data set” (2004)
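Each compound was tested at five concentrations against cells in 96-well plates for 48 hours. The concentration for 50% growth inhibition is given as GI50.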 Active and inactive are the calls of the source. Cut-off read from the data, not from the text of the source: active = GI50 up to about 1.1 µM and inactive = higher.

Columns and labels:
Experiment in all cases: growth of human tumour cells (NCI), 48 h
LXFL 529 = system: LXFL 529
M19-MEL = system: M19-MEL
SNB-78 = system: SNB-78
DLD-1 = system: DLD-1
RXF 631 = system: RXF 631
HOP-18 = system: HOP-18
KM-20L2 = system: KM-20L2
T47D = system: T47D
MCF7 = system: MCF7

Measured: GI50

COc1ccc(/C=C(\NC(=O)c2ccccc2)c2nc3ccccc3[nH]2)cc1OC
inactive: LXFL 529 76 µM | M19-MEL > 100 µM | SNB-78 > 100 µM | DLD-1 > 100 µM | RXF 631 > 100 µM | HOP-18 > 100 µM | KM-20L2 > 100 µM

CC(C)(C)[Si](Nc1ccccc1)(c1ccccc1)c1ccccc1
inactive: M19-MEL 14.2 µM | SNB-78 16.4 µM | RXF 631 15.5 µM | HOP-18 13.7 µM | KM-20L2 15.8 µM

Clc1cccc(Cl)c1C1SCc2nc3ccccc3n21 (centres undefined)
inactive: LXFL 529 > 100 µM | M19-MEL > 100 µM | SNB-78 > 100 µM | DLD-1 51.1 µM | RXF 631 15.4 µM | HOP-18 > 100 µM | KM-20L2 43.2 µM

CCOC(=O)C(=O)CC(=O)C(Br)C(Br)c1ccc(Cl)cc1 (centres undefined)
inactive: LXFL 529 16.3 µM | M19-MEL 23.2 µM | SNB-78 44.2 µM | DLD-1 18.3 µM | RXF 631 > 100 µM | KM-20L2 > 100 µM

CC1=C(C(=O)CC(=O)C(=O)Nc2ccc(Cl)cc2C)Sc2ccccc2N1
inactive: LXFL 529 > 100 µM | M19-MEL > 100 µM | SNB-78 > 100 µM | DLD-1 > 100 µM | RXF 631 > 100 µM | HOP-18 > 100 µM | KM-20L2 > 100 µM

N=C(N)NS(=O)(=O)c1ccc(NC(=O)c2cccc3c(Nc4ccc(S(=O)(=O)N=C(N)N)cc4)c4ccccc4nc23)cc1
inactive: LXFL 529 26.5 µM | M19-MEL 47.4 µM | SNB-78 24.8 µM | DLD-1 92.9 µM | RXF 631 > 100 µM | HOP-18 > 100 µM | KM-20L2 37.5 µM

Cn1ccnc1C(c1nccn1C)C(C)(C)[N+](=O)[O-]
inactive: M19-MEL > 100 µM | SNB-78 > 100 µM | DLD-1 > 100 µM | RXF 631 > 100 µM

COC(=O)/C(C#N)=C1\NC(=O)c2ccccc21
inactive: LXFL 529 > 100 µM | M19-MEL > 100 µM | SNB-78 > 100 µM | DLD-1 > 100 µM | HOP-18 > 100 µM | KM-20L2 > 100 µM

Cn1ncc2c(Nc3ccc(Cl)cc3)c3ccccc3nc21
inactive: LXFL 529 18.6 µM | M19-MEL 19.3 µM | SNB-78 24.4 µM | DLD-1 11.2 µM | RXF 631 13.1 µM | HOP-18 22.3 µM

O=C1c2ccccc2C(=O)N1CC#CCO
inactive: LXFL 529 > 100 µM | M19-MEL > 100 µM | SNB-78 > 100 µM | RXF 631 > 100 µM

Cn1cnc([N+](=O)[O-])c1Sc1nc2ccccc2[nH]1
inactive: LXFL 529 6.67 µM | M19-MEL 14.9 µM | SNB-78 13.2 µM | DLD-1 5.6 µM | HOP-18 67.6 µM | KM-20L2 16.4 µM

C#Cc1cccc(N2C(=O)CCC2=O)c1
inactive: LXFL 529 11.1 µM | T47D 18.9 µM | M19-MEL 19.5 µM | SNB-78 18.5 µM | DLD-1 17.9 µM | RXF 631 21.5 µM | HOP-18 16.7 µM | MCF7 19.4 µM | KM-20L2 25.8 µM
